Our source for the IC50 values is the Kinase Knowledgebase extract (Sharma et al. 2016).

The target of the experiment is MAPK14 (human) (UniProt Q16539). The experiment can be described thus: Cell-Based Assay. The note with it: hct-116.
MAPK14 (human), sequence (Q16539 whole entry, looked up): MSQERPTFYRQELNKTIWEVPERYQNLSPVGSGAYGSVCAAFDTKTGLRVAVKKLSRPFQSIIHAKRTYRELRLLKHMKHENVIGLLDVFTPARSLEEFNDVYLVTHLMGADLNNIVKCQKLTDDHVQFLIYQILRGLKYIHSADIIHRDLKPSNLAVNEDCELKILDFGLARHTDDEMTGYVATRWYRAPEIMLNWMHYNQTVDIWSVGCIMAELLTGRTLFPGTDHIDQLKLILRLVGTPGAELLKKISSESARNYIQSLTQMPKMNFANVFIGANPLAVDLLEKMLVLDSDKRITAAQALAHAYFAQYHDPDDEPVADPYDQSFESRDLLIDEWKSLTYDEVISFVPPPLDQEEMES

In general, IC50 refers to the point on the concentration scale where inhibition reaches its midpoint. A high value points to weaker potency. With `CC(C)N1CCC(n2cc(-c3cnc(N)c4oc(-c5cccc6cnccc56)cc34)cn2)CC1`, the half-maximal inhibitory concentration (IC50) was in the range of 0.1 to 1 µM.
In the case of `CC(=O)N1CCC(n2cc(-c3cnc(N)c4oc(-c5cnn(Cc6cccnc6)c5)cc34)cn2)CC1` it was above 10 µM; in that of `CC(=O)N1CCC(n2cc(-c3cnc(N)c4oc(-c5cccn6ccnc56)cc34)cn2)CC1`, 0.1 to 1 µM.
The value for `CC(=O)N1CCC(n2cc(-c3cnc(N)c4oc(-c5ccc6c(c5)C(=O)NC6)cc34)cn2)CC1` was above 10 µM.
The value for `CN1CCC(n2cc(-c3cnc(N)c4oc(-c5cccc6cnccc56)cc34)cn2)CC1` was 0.1 to 1 µM.
Compound `Nc1ncc(-c2cnn(C3CCN(CC(F)(F)F)CC3)c2)c2cc(-c3cccc4cnccc34)oc12` gave an IC50 of 0.1 to 1 µM.
Regarding `CC(=O)N1CCC(n2cc(-c3cnc(N)c4oc(-c5ccc6scnc6c5)cc34)cn2)CC1`, the half-inhibitory concentration (IC50) was in the range of 0.1 to 1 µM.
The value for `CC(=O)N1CCC(n2cc(-c3cnc(N)c4oc(-c5ccccc5CC#N)cc34)cn2)CC1` was 0.1 to 1 µM; that for `CNc1ncc(-c2cnn(C3CCN(C(C)=O)CC3)c2)c2cc(-c3csc4cnccc34)oc12` was at most 0.1 µM; that for `CC(=O)N1CCC(n2cc(-c3cnc(N)c4oc(-c5cccc6[nH]ncc56)cc34)cn2)CC1` was 0.1 to 1 µM.
As for `Nc1ncc(-c2cnn(C3CCCCC3)c2)c2cc(-c3c[nH]c4cnccc34)oc12`, the IC50 was 0.1 to 1 µM.
The value for `CS(=O)(=O)N1CCC(n2cc(-c3cnc(N)c4oc(-c5cccc6cnccc56)cc34)cn2)CC1` was 0.1 to 1 µM; that for `CC(=O)N1CCC(n2cc(-c3cnc(N)c4oc(-c5cccc([N+](=O)[O-])c5C)cc34)cn2)CC1` was 0.1 to 1 µM; that for `Nc1ncc(-c2cnn([C@H]3CC[C@H](O)CC3)c2)c2cc(-c3cccc4cnsc34)oc12` was 0.1 to 1 µM.
The value for `CC(C)(C)OC(=O)N1CCC(n2cc(-c3cnc(N)c4oc(-c5csc6cnccc56)cc34)cn2)CC1` was 0.1 to 1 µM; that for `CC(=O)N1CCC(n2cc(-c3cnc(N)c4oc(-c5cccc6nnsc56)cc34)cn2)CC1` was at most 0.1 µM.
The value for `CC(=O)N1CC(n2cc(-c3cnc(N)c4oc(-c5csc6cnccc56)cc34)cn2)C1` was 0.1 to 1 µM.
In turn, `CC(=O)N1CCC(n2cc(-c3cnc(N)c4oc(-c5ccc6[nH]nnc6c5)cc34)cn2)CC1` displayed an IC50 above 10 µM.
The value for `COCCN1CCC(n2cc(-c3cnc(N)c4oc(-c5cccc6cnccc56)cc34)cn2)CC1` was 0.1 to 1 µM; that for `Cn1cc(-c2cnc(N)c3oc(-c4csc5cnccc45)cc23)cn1` was 0.1 to 1 µM.
The value for `CC(=O)N1CCC(n2cc(-c3cnc(N)c4oc(-c5cccc(O)c5)cc34)cn2)CC1` was 0.1 to 1 µM.
In the case of `CC(=O)N1CCC(n2cc(-c3cnc(N)c4oc(-c5cncc6cnsc56)cc34)cn2)CC1` it was 0.1 to 1 µM; in that of `CC(=O)N1CCC(n2cc(-c3cnc(N)c4oc(-c5ccc6sccc6c5)cc34)cn2)CC1`, 0.1 to 1 µM.
For `CC(=O)N1CCC(n2cc(-c3cnc(N)c4oc(-c5cccc(OCC#N)c5)cc34)cn2)CC1`, the 50% inhibitory concentration (IC50) is 0.1 to 1 µM.
The value for `Nc1ncc(-c2cnn(C3CC4(C3)OCCO4)c2)c2cc(-c3csc4cnccc34)oc12` was 0.1 to 1 µM.
The value for `Nc1ncc(-c2cnn([C@H]3CC[C@H](O)CC3)c2)c2cc(-c3cc(F)cc4cnsc34)oc12` was 0.1 to 1 µM.
With `Cn1cc(-c2cnc(N)c3oc(-c4c[nH]c5cnccc45)cc23)cn1`, the IC50 lay within 0.1 to 1 µM.
Compound `CCSc1ccccc1-c1cc2c(-c3cnn(C4CCN(C(C)=O)CC4)c3)cnc(N)c2o1` had an IC50 of 0.1 to 1 µM.
`CC(=O)N1CCC(n2cc(-c3cnc(N)c4oc(-c5cccc6cnccc56)cc34)cn2)CC1` yielded an IC50 of 0.1 to 1 µM.
In the case of `CC(=O)N1CCC(n2cc(-c3cnc(N)c4oc(-c5csc6ccccc56)cc34)cn2)CC1` it was 0.1 to 1 µM; in that of `CC(=O)N1CCC(n2cc(-c3cnc(N)c4oc(-c5cccc6ccnn56)cc34)cn2)CC1`, 0.1 to 1 µM.
In the case of `CC(=O)N1CCC(n2cc(-c3cnc(N)c4oc(-c5ccc(O)cc5)cc34)cn2)CC1` it was 0.1 to 1 µM.
`Nc1ncc(-c2cnn(C3CCNCC3)c2)c2cc(-c3cccc4cnsc34)oc12` gave an IC50 of 0.1 to 1 µM.
In the case of `Nc1ncc(-c2cnn([C@H]3CC[C@H](O)CC3)c2)c2cc(-c3csc4cnccc34)oc12` it was at most 0.1 µM.
The value for `Nc1ncc(-c2cnn([C@H]3CC[C@H](O)CC3)c2)c2cc(-c3cccc4cnccc34)oc12` was 0.1 to 1 µM.
In turn, `Nc1ncc(-c2cnn(C3CCNCC3)c2)c2cc(-c3ccc4[nH][nH]c(=O)c4c3)oc12` had an IC50 above 10 µM.
The value for `CC(=O)N1CCC(n2cc(-c3cnc(N)c4oc(-c5ccc6occc6c5)cc34)cn2)CC1` was 0.1 to 1 µM; that for `CNc1ncc(-c2cnn([C@H]3CC[C@H](O)CC3)c2)c2cc(-c3csc4cnccc34)oc12` was at most 0.1 µM.
In the case of `Nc1ncc(-c2cnn(C3CCN(CCO)CC3)c2)c2cc(-c3cccc4cnccc34)oc12` it was 0.1 to 1 µM; in that of `Nc1ncc(-c2cnn([C@H]3CC[C@H](O)CC3)c2)c2cc(-c3cccc4nnsc34)oc12`, at most 0.1 µM.
The value for `CC(=O)N1CCC(n2cc(-c3cnc(N)c4oc(-c5ccc6ncn(C)c6c5)cc34)cn2)CC1` was above 10 µM; that for `Nc1ncc(-c2cnn(C3CCNCC3)c2)c2cc(-c3ccc4[nH]ncc4c3)oc12` was 0.1 to 1 µM.
The compound `Nc1ncc(-c2cnn(C3CCN(CCF)CC3)c2)c2cc(-c3cccc4cnccc34)oc12` showed an IC50 of 0.1 to 1 µM.
In the case of `CC(=O)N1CCC(n2cc(-c3cnc(N)c4oc(-c5ccc6[nH]ccc6c5)cc34)cn2)CC1` it was 0.1 to 1 µM.
As for `Nc1ncc(-c2cnn([C@H]3CC[C@H](O)CC3)c2)c2cc(-c3ccc(F)c4cnsc34)oc12`, the half-inhibitory concentration (IC50) lay within 0.1 to 1 µM.
The value for `Nc1ncc(-c2cnn([C@H]3CC[C@H](O)CC3)c2)c2cc(-c3c(F)ccc4cnsc34)oc12` was 0.1 to 1 µM.
The value for `COCC(=O)N1CCC(n2cc(-c3cnc(N)c4oc(-c5cccc6cnccc56)cc34)cn2)CC1` was 0.1 to 1 µM; that for `CC(=O)N1CCC(n2cc(-c3cnc(N)c4oc(-c5cn[nH]c5)cc34)cn2)CC1` was above 10 µM; that for `Nc1ncc(-c2cnn(C3CC(=O)C3)c2)c2cc(-c3csc4cnccc34)oc12` was 0.1 to 1 µM.
The value for `Nc1ncc(-c2cn[nH]c2)c2cc(-c3cccc4cnccc34)oc12` was 0.1 to 1 µM; that for `CC(C)C(=O)N1CCC(n2cc(-c3cnc(N)c4oc(-c5cccc6cnccc56)cc34)cn2)CC1` was at most 0.1 µM; that for `CC(=O)N1CCC(n2cc(-c3cnc(N)c4oc(-c5c[nH]c6cc(F)ccc56)cc34)cn2)CC1` was 0.1 to 1 µM.
Turning to `CSc1ccccc1-c1cc2c(-c3cnn(C4CCN(C(C)=O)CC4)c3)cnc(N)c2o1`, the IC50 was 0.1 to 1 µM.
`CC(=O)N1CCC(n2cc(-c3cnc(N)c4oc(-c5csc6cncc(F)c56)cc34)cn2)CC1` gave an IC50 of 0.1 to 1 µM.
The value for `Nc1ncc(-c2cnn(C3CCNCC3)c2)c2cc(-c3csc4cnccc34)oc12` was 0.1 to 1 µM; that for `CC(=O)N1CCC(n2cc(-c3cnc(N)c4oc(-c5cccc6cnsc56)cc34)cn2)CC1` was at most 0.1 µM; that for `CNc1ncc(-c2cnn(C3CCN(C(C)=O)CC3)c2)c2cc(-c3c[nH]c4cnccc34)oc12` was 0.1 to 1 µM.
As for `CC(=O)N1CCC(n2cc(-c3cnc(N)c4oc(-c5ccc(S(C)(=O)=O)cc5)cc34)cn2)CC1`, the IC50 was above 10 µM.
In the case of `CS(=O)(=O)CCN1CCC(n2cc(-c3cnc(N)c4oc(-c5cccc6cnccc56)cc34)cn2)CC1` it was 0.1 to 1 µM; in that of `CC(C)n1cc(-c2cnc(N)c3oc(-c4c[nH]c5cnccc45)cc23)cn1`, at most 0.1 µM; in that of `Cn1cc(-c2cnc(N)c3oc(-c4cccc5cnccc45)cc23)cn1`, 0.1 to 1 µM.
Turning to `CC(=O)N1CCC(n2cc(-c3cnc(N)c4oc(-c5cccc6c5OC(F)(F)O6)cc34)cn2)CC1`, the IC50 was 0.1 to 1 µM.
The value for `Nc1ncc(-c2cnn([C@@H]3C[C@@H](O)[C@@H](O)C3)c2)c2cc(-c3csc4cnccc34)oc12` was 0.1 to 1 µM; that for `CC(=O)N1CCC(n2cc(-c3cnc(N)c4oc(-c5cccc(C#N)c5)cc34)cn2)CC1` was 0.1 to 1 µM; that for `CC(=O)N1CCC(n2cc(-c3cnc(N)c4oc(-c5ccc6c(c5)CCO6)cc34)cn2)CC1` was at most 0.1 µM.
Consider `CC(=O)N1CCC(n2cc(-c3cnc(N)c4oc(-c5csc6cnccc56)cc34)cn2)CC1`, for which the IC50 lay in the range of 0.1 to 1 µM.
In the case of `CC(=O)N1CCC(n2cc(-c3cnc(N)c4oc(-c5cccc6[nH]ccc56)cc34)cn2)CC1` it was 0.1 to 1 µM; in that of `CC(=O)N1CCC(n2cc(-c3cnc(N)c4oc(-c5ccc6[nH]nc(C#N)c6c5)cc34)cn2)CC1`, above 10 µM; in that of `Nc1ncc(-c2cnn([C@H]3CC[C@H](O)CC3)c2)c2cc(-c3cncc4cnsc34)oc12`, 0.1 to 1 µM.
`CC(=O)N1CCC(n2cc(-c3cnc(N)c4oc(-c5ccc(O)cc5C)cc34)cn2)CC1`: the IC50 fell in the range of 0.1 to 1 µM.
The value for `Nc1ncc(-c2cnn(C3CCN(C(=O)C4CC4)CC3)c2)c2cc(-c3cccc4cnccc34)oc12` was 0.1 to 1 µM.
In the case of `CC(=O)N1CCC(n2cc(-c3cnc(N)c4oc(-c5ccc6c(c5)CNC6=O)cc34)cn2)CC1` it was above 10 µM; in that of `Nc1ncc(-c2cnn([C@H]3CC[C@H](O)CC3)c2)c2cc(-c3csc4cnc(F)cc34)oc12`, at most 0.1 µM.
The value for `Nc1ncc(-c2cnn(C3CNC3)c2)c2cc(-c3csc4cnccc34)oc12` was 0.1 to 1 µM.
Take `C[C@]1(O)CC[C@@H](n2cc(-c3cnc(N)c4oc(-c5cccc6cnccc56)cc34)cn2)CC1`: the IC50 lay within 0.1 to 1 µM.
In the case of `Nc1ncc(-c2cnn(C3CCN(C(=O)C4CCC4)CC3)c2)c2cc(-c3cccc4cnccc34)oc12` it was 0.1 to 1 µM; in that of `CC(=O)N1CCC(n2cc(-c3cnc(N)c4oc(-c5cccc([N+](=O)[O-])c5)cc34)cn2)CC1`, 0.1 to 1 µM.
In the case of `CC(C)n1cc(-c2cnc(N)c3oc(-c4cccc5cnccc45)cc23)cn1` it was 0.1 to 1 µM.
The value for `Nc1ncc(-c2cnn(C3CCNCC3)c2)c2cc(-c3cccc4cnccc34)oc12` was 0.1 to 1 µM.
As for `Cc1sc2cnccc2c1-c1cc2c(-c3cnn([C@H]4CC[C@H](O)CC4)c3)cnc(N)c2o1`, the IC50 fell in the range of 0.1 to 1 µM.
The value for `CC(=O)N1CCC(n2cc(-c3cnc(N)c4oc(-c5c[nH]c6cc(C#N)ccc56)cc34)cn2)CC1` was 0.1 to 1 µM.
